In test [1] the target is T1, hNaV1.7 (Homo sapiens (Human), UniProt Q15858). The test can be described thus: Patch voltage clamp electrophysiology, inactivated state block of NaV1.7 in HEK-293 cells. The class given is cell-based. Conditions: HEK cells with β1 subunit, read-out: hNaV 1.7 IC50. As to the method: (§1) Patch voltage clamp electrophysiology allows for the direct measurement and quantification of block of voltage-gated sodium channels (NaV's), and allows the determination of the time- and voltage-dependence of block which has been interpreted as differential binding to the resting, open, and inactivated states of the sodium channel (Hille, B., Journal of General Physiology (1977), 69: 497-515).
(§2) The following patch voltage clamp electrophysiology studies were performed on representative compounds of the invention using human embryonic kidney cells (HEK), permanently transfected with an expression vector containing the full-length cDNA coding for the desired human sodium channel α-subunit, grown in culture media containing 10% FBS, 1% PSG, and 0.5 mg/mL G418 at 37° C. with 5% CO2. […] NaV1.7 and NaV1.5 cDNAs (NM_002977 and AC137587; SCN5A, respectively) were stably expressed in HEK-293 cells. The β1 subunit was coexpressed in both the NaV1.7 and NaV1.5 cell lines.
(§3) Sodium currents were measured using the patch clamp technique in the whole-cell configuration using either a PatchXpress automated voltage clamp or manually using an Axopatch 200B (Axon Instruments) or Model 2400 (A-M systems) amplifier. The manual voltage clamp protocol was as follows:
(§4) The pipette was filled with a solution comprised of: 5 mM NaCl, 10 mM CsCl, 120 mM CsF, 0.1 mM CaCl2, 2 mM MgCl2, 10 mM HEPES, 10 mM EGTA; and adjusted to pH 7.2 with CsOH. The external solution had the following composition: 140 mM NaCl, 5 mM KCl, 2 mM CaCl2, 1 mM MgCl2, 10 mM HEPES; and adjusted to pH 7.4 with NaOH. In some studies, the external sodium was reduced by equimolar replacement with choline. Osmolarity in the CsF internal and NaCl external solutions was adjusted to 300 mOsm/kg and 310 mOsm/kg with glucose, respectively. All recordings were performed at ambient temperature in a bath chamber with a volume of 150 μL. Control sodium currents were measured in 0.5% DMSO. Controls and representative compounds of the invention were applied to the recording chamber through a 4-pinch or 8-pinch valve bath perfusion system manufactured by ALA Scientific Instruments.
(§5) Currents were recorded at 40 kHz sampling frequency, filtered at […], and stored using a Digidata-1322A analogue/digital interface with the pClamp software (Axon Instruments). Series resistance compensation was applied (60-80%). […] All statistics in this study are given as mean±SD.
The membrane potential was maintained at a voltage where inactivation of the channel is complete (which was −60 mV for both NaV1.7 and NaV1.5). […] The percent decrease in sodium current following wash-on of compound was taken as the percent block of sodium channels.

For test [2], the target named is hNaV1.5 (Homo sapiens (Human), UniProt Q14524). The test can be described thus: Patch voltage clamp electrophysiology, inactivated state block of NaV1.5 in HEK-293 cells. In kind it is cell-based. Conditions: HEK cells with β1 subunit, read-out: hNaV 1.5 IC50. As to the method:
as §1, §2, §3
as §4, with “Borosilicate glass micropipettes were fire-polished to a tip diameter yielding a resistance of 2-4 Mohms in the working solutions. The pipette” for “The pipette”
as §5
The membrane potential was maintained at a voltage where inactivation of the channel is complete (which was −60 mV for both NaV1.7 and NaV1.5). The voltage is then stepped back to a very negative (Vhold=[…]) voltage for 20 ms and then a test pulse is applied to quantify the compound block. The 20 ms brief repolarization was long enough for compound-free channels to completely recover from fast inactivation, but the compound-bound channels recovered more slowly such that negligible recovery could occur during this interval. The percent decrease in sodium current following wash-on of compound was taken as the percent block of sodium channels.

The target in test [3] is T1, hNaV1.7. The test can be described thus: Competitive binding of tritiated compound to membranes from cells expressing hNav1.7 and the β1 subunit. Conditions: 100 pM [3H]compound, 18 h, room temperature; read-out: NaV1.7 395 Membrane Binding IC50. The method, boiled down: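 Membranes from cells expressing hNav1.7 with β1 subunit incubated 18 h at room temperature with 100 pM tritiated reference compound and test compound in 100 mM NaCl, 20 mM Tris HCl, pH 7.4. Nonspecific binding defined with 1 μM unlabelled compound; bound radioactivity counted after GF/C filtration. IC50 from 4-parameter logistic fit.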

pIC50: −log10 of the molar value.

This note sets out measurements from patent US10071957B2, “N-substituted benzamides and methods of use thereof” (GENENTECH, INC., priority 2012, dated 2018).

T1 sequence (Q15858 whole entry, looked up): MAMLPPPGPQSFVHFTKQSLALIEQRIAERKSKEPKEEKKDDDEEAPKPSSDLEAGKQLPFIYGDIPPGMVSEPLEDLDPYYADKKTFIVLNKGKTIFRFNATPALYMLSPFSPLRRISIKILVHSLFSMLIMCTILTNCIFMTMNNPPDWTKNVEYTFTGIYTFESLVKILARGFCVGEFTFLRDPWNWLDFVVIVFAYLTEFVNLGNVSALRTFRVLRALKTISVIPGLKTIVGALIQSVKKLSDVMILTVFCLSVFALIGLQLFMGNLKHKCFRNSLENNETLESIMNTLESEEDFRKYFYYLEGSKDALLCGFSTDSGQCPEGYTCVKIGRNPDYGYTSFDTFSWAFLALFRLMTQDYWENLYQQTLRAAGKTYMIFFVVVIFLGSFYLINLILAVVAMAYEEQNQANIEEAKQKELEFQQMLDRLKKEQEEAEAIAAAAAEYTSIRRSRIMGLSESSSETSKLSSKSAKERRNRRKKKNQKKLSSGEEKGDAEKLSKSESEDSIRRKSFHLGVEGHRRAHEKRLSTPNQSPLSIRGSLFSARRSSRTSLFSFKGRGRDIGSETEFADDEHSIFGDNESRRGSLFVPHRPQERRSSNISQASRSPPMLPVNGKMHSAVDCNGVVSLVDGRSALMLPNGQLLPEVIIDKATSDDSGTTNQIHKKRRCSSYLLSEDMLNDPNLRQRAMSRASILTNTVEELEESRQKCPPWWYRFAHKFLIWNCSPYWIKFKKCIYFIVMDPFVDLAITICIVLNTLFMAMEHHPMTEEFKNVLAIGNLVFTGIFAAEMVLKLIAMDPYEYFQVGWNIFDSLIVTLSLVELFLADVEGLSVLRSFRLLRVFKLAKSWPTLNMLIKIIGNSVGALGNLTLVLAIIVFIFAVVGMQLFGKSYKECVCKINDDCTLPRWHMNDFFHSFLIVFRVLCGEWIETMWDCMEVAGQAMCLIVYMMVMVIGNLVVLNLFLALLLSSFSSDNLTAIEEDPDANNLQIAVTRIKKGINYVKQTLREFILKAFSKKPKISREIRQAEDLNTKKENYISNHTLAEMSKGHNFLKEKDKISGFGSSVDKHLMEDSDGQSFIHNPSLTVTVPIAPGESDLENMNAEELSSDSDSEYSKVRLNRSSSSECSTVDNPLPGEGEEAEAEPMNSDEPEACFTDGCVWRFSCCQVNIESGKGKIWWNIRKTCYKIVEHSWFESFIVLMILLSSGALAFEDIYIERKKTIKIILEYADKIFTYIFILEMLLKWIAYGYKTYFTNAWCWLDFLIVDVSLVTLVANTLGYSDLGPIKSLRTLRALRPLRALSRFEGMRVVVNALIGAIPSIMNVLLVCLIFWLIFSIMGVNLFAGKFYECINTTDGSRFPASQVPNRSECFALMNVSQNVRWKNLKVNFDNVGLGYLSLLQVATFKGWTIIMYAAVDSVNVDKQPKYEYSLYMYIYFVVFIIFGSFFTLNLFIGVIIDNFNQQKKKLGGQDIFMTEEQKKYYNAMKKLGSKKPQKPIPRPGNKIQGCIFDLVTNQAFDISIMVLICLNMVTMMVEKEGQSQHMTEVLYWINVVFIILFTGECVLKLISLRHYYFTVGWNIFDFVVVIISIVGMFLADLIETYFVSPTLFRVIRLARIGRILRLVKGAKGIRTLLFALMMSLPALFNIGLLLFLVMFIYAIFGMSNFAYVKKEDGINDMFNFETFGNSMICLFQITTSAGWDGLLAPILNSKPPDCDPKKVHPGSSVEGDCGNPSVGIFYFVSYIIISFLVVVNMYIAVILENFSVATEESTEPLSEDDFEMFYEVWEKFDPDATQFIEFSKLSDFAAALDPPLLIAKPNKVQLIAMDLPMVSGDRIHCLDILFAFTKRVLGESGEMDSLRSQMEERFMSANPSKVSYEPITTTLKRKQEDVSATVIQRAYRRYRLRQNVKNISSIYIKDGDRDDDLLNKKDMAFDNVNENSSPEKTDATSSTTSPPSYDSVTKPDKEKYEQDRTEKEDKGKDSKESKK
T1 sequence (Q07699 whole entry partner, looked up): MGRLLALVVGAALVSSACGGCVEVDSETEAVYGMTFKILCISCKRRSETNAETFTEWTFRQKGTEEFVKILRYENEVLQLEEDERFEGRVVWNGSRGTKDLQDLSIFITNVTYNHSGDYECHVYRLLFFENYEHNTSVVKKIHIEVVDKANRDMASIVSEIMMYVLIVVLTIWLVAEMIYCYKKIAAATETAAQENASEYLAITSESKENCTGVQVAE
Chain of hNaV1.5 (Q14524 whole entry): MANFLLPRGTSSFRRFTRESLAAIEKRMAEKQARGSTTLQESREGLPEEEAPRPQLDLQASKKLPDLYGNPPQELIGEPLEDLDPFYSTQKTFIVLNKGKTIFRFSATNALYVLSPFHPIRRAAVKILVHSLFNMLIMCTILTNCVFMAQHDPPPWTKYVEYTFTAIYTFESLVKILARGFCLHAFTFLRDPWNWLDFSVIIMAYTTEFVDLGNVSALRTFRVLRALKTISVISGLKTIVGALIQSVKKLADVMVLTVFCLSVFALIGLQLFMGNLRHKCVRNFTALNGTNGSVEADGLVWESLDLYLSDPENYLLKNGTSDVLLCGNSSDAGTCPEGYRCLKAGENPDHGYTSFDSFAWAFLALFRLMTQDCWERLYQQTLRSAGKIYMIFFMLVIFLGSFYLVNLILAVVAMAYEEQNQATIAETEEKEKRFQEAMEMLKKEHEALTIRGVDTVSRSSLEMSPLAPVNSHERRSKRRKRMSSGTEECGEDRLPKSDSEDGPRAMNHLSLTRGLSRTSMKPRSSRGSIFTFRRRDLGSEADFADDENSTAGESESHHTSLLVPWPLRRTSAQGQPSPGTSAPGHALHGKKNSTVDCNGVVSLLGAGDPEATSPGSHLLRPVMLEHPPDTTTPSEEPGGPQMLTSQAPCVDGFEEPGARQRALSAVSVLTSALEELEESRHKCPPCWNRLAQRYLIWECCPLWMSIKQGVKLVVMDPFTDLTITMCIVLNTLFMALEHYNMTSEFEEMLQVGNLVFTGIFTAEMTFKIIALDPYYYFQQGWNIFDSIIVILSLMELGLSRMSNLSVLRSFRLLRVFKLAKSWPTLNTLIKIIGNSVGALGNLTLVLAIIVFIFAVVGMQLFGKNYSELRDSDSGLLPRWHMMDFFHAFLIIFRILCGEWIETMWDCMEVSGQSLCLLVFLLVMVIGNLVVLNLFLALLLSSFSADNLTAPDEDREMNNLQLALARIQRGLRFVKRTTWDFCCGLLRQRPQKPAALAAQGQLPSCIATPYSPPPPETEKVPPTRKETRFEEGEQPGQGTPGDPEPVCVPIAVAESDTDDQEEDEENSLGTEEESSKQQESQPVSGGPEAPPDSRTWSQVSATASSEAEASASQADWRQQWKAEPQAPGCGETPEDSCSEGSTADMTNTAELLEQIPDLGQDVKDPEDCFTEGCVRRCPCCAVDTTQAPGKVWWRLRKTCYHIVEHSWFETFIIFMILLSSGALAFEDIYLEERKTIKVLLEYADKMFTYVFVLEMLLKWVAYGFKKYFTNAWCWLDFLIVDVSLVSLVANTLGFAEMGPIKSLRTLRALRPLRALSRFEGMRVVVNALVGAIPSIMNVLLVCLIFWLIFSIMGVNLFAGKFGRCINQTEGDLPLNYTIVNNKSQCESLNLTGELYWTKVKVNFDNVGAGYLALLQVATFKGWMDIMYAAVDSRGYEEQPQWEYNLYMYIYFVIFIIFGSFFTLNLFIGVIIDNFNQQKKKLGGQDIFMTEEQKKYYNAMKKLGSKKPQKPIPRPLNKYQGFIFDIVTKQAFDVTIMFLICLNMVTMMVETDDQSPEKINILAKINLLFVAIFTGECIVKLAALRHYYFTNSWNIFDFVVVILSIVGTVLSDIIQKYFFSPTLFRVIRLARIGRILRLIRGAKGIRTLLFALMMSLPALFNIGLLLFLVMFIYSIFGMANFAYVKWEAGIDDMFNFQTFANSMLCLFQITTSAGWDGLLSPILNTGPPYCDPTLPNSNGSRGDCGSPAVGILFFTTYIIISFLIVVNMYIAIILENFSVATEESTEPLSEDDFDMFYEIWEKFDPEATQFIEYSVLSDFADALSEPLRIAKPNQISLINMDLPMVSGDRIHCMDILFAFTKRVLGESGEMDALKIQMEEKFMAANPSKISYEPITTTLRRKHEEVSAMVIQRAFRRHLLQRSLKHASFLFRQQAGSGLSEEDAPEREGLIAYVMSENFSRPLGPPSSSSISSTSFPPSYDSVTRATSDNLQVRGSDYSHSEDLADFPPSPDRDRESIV

By pIC50 is commonly meant the negative decadic logarithm of the IC50, by convention in mol/L. For the molecule `CC(C)Oc1ncc(Oc2ccc(C(=O)NS(=O)(=O)N3CCC3)cc2C2CC2)cc1Cl` [Preparation 84], the values for the pIC50 in test [1], in test [2] and in test [3] were 8.08, 5.46 and 7.60, respectively.
With `CC(C)COc1ncc(Oc2cc(F)c(C(=O)NS(=O)(=O)N(C)C)cc2Cl)cc1Cl` [Preparation 3, 5-chloro-4-((5-chloro-6-isobutoxypyridin-3-yl)oxy)-N-(N,N-dimethylsulfamoyl)-2-fluorobenzamide], the pIC50 in test [1] was 7.96; in test [2], 5.66; in test [3] it was 7.61.
For `CNS(=O)(=O)NC(=O)c1cc(Cl)c(Oc2cnc(OCC(C)C)c(Cl)c2)cc1F` [Preparation 6, 5-chloro-4-((5-chloro-6-isobutoxypyridin-3-yl)oxy)-2-fluoro-N-(N-methylsulfamoyl) benzamide], the pIC50 is 8.22 in test [1], 5.14 in test [2] and 8.07 in test [3].
For `CC(C)Oc1ncc(Oc2cc(F)c(C(=O)NS(=O)(=O)N3CCC3)cc2C2CC2)cc1Cl` [Preparation 87], the pIC50 is 8.68 in test [1], 5.92 in test [2] and 8.22 in test [3].
`C=Cc1cc(C(=O)NS(=O)(=O)N2CCC2)c(F)cc1Oc1cnc(OC(C)C)c(Cl)c1` [Preparation 91]: the pIC50 in test [1] was 8.17; in test [2], 5.59; in test [3], 8.30.
For the molecule `CN(C)S(=O)(=O)NC(=O)c1cc(Cl)c(Oc2ccc(Cl)c(C(F)(F)F)c2)cc1F` [Preparation 1, 5-chloro-4-(4-chloro-3-(trifluoromethyl)phenoxy)-N-(N,N-dimethylsulfamoyl)-2-fluorobenzamide], the pIC50 is 7.28 in test [1] and 6.60 in test [3].
Consider `COc1ncccc1-c1cc(C(=O)NS(=O)(=O)N2CCC2)ccc1Oc1cnc(OC(C)C)c(Cl)c1` [Preparation 86], for which the values for the pIC50 in test [1], in test [2] and in test [3] were 7.66, below 5.00 and 7.96, respectively.
With `CNS(=O)(=O)NC(=O)c1cc(Cl)c(Oc2ccc(OC(F)(F)F)c(Cl)c2)cc1F` [Preparation 11, 5-chloro-4-(3-chloro-4-(trifluoromethoxy)phenoxy)-2-fluoro-N-(N-methyl-sulfamoyl)benzamide], the pIC50 in test [1] was 7.82; in test [3], 6.84.
For `NS(=O)(=O)NC(=O)c1cc(Cl)c(Oc2ccc(Cl)c(C(F)(F)F)c2)cc1F` [Preparation 7, 5-chloro-4-(4-chloro-3-(trifluoromethyl)phenoxy)-2-fluoro-N-sulfamoyl-benzamide], the pIC50 is 6.72 in test [1] and 5.95 in test [3].
